In brackets after ≈: the same amount, converted by molar mass. Activity calls are given as the source filed them. No cut-off for these calls is given here.
Assays:
Staphylococcus aureus [1] = assay: microbe, parasite or virus in culture; settings: ATCC 25923, 18 h, read-out: DIZ
Description: Antimicrobial activity against Staphylococcus aureus ATCC 25923 at 5 ug after 18 hrs by disk diffusion method

Micrococcus luteus [2] = assay: Antimicrobial activity against Micrococcus luteus ATCC 10240 at 5 ug after 18 hrs by disk diffusion method; assay type: functional; settings: ATCC 10240, 18 h, read-out: DIZ
Staphylococcus aureus [3] = assay: Antimicrobial activity against Methicillin susceptible Staphylococcus aureus 207/7 by twofold dilution technique; assay type: functional
Staphylococcus aureus [4] = assay: Antimicrobial activity against methicillin-resistant Staphylococcus aureus 146/6 by twofold dilution technique; assay type: functional
Staphylococcus aureus [5] = assay: Antimicrobial activity against Staphylococcus aureus ATCC 6538 after 18 hrs by twofold dilution technique; assay type: functional; settings: ATCC 6538, 18 h
Staphylococcus aureus [6] = assay: Antimicrobial activity against methicillin-resistant Staphylococcus aureus 140/6 by twofold dilution technique; assay type: functional
Staphylococcus aureus [7] = assay: Antimicrobial activity against Methicillin susceptible Staphylococcus aureus 239/7 by twofold dilution technique; assay type: functional
Staphylococcus aureus [8] = assay: Antimicrobial activity against methicillin-resistant Staphylococcus aureus 217/7 by twofold dilution technique; assay type: functional
Staphylococcus aureus [9] = assay: Antimicrobial activity against Methicillin susceptible Staphylococcus aureus 212/7 by twofold dilution technique; assay type: functional
Staphylococcus aureus [10] = assay: Antimicrobial activity against methicillin-resistant Staphylococcus aureus 141/6 by twofold dilution technique; assay type: functional
Staphylococcus aureus [11] = assay: Antimicrobial activity against methicillin-resistant Staphylococcus aureus 136/6 by twofold dilution technique; assay type: functional
Micrococcus luteus [12] = assay: Antimicrobial activity against Micrococcus luteus ATCC 10240 by twofold dilution technique; assay type: functional
Staphylococcus aureus [13] = assay: Antimicrobial activity against Methicillin susceptible Staphylococcus aureus 242/7 by twofold dilution technique; assay type: functional
Micrococcus luteus [14] = assay: Antimicrobial activity against Micrococcus luteus ATCC 9341 at 5 ug after 18 hrs by disk diffusion method; assay type: functional; settings: ATCC 9341, 18 h, read-out: DIZ
Staphylococcus aureus [15] = assay: Antimicrobial activity against Methicillin susceptible Staphylococcus aureus 243/7 by twofold dilution technique; assay type: functional
Staphylococcus aureus [16] = assay: Antimicrobial activity against methicillin-resistant Staphylococcus aureus 200/7 by twofold dilution technique; assay type: functional
Micrococcus luteus [17] = assay: Antimicrobial activity against Micrococcus luteus ATCC 9341 after 18 hrs by twofold dilution technique; assay type: functional; settings: ATCC 9341, 18 h
[18] = system: Staphylococcus epidermidis; assay: Antimicrobial activity against Staphylococcus epidermidis ATCC 12228 by twofold dilution technique; assay type: functional
Bacillus cereus [19] = assay: Antimicrobial activity against Bacillus cereus ATCC 11778 at 5 ug after 18 hrs by disk diffusion method; assay type: functional; settings: ATCC 11778, 18 h, read-out: DIZ
Bacillus cereus [20] = assay: Antimicrobial activity against Bacillus cereus ATCC 11778 after 18 hrs by twofold dilution technique; assay type: functional; settings: ATCC 11778, 18 h
Staphylococcus aureus [21] = assay: Antimicrobial activity against methicillin-resistant Staphylococcus aureus 236/7 by twofold dilution technique; assay type: functional
Staphylococcus aureus [22] = assay: Antimicrobial activity against methicillin-resistant Staphylococcus aureus 143/6 by twofold dilution technique; assay type: functional
Staphylococcus aureus [23] = assay: Antimicrobial activity against Methicillin susceptible Staphylococcus aureus 208/7 by twofold dilution technique; assay type: functional
[24] = system: Staphylococcus epidermidis; assay: microbe, parasite or virus in culture; settings: ATCC 12228, 18 h, read-out: DIZ
Description: Antimicrobial activity against Staphylococcus epidermidis ATCC 12228 at 5 ug after 18 hrs by disk diffusion method

Staphylococcus aureus [25] = assay: Antimicrobial activity against Methicillin susceptible Staphylococcus aureus 206/7 by twofold dilution technique; assay type: functional
Enterococcus hirae [26] = assay: Antimicrobial activity against Enterococcus hirae ATCC 10541 at 5 ug after 18 hrs by disk diffusion method; assay type: functional, organism-based
Staphylococcus aureus [27] = assay: Antimicrobial activity against Staphylococcus aureus NCTC 4163 after 18 hrs by twofold dilution technique; assay type: functional; settings: NCTC 4163, 18 h
Staphylococcus aureus [28] = assay: microbe, parasite or virus in culture; settings: NCTC 4163, 18 h, read-out: DIZ
Description: Antimicrobial activity against Staphylococcus aureus NCTC 4163 at 5 ug after 18 hrs by disk diffusion method

Staphylococcus aureus [29] = assay: Antimicrobial activity against Methicillin susceptible Staphylococcus aureus 238/7 by twofold dilution technique; assay type: functional
Enterococcus hirae [30] = assay: Antimicrobial activity against Enterococcus hirae ATCC 10541 after 18 hrs by twofold dilution technique; assay type: functional; settings: ATCC 10541, 18 h
Staphylococcus aureus [31] = assay: Antimicrobial activity against Staphylococcus aureus ATCC 25923 after 18 hrs by twofold dilution technique; assay type: functional; settings: ATCC 25923, 18 h
Bacillus subtilis [32] = assay: Antimicrobial activity against Bacillus subtilis ATCC 6633 after 18 hrs by twofold dilution technique; assay type: functional; settings: ATCC 6633, 18 h
Bacillus subtilis [33] = assay: microbe, parasite or virus in culture; settings: ATCC 6633, 18 h, read-out: DIZ
Description: Antimicrobial activity against Bacillus subtilis ATCC 6633 at 5 ug after 18 hrs by disk diffusion method

Staphylococcus aureus [34] = assay: Antimicrobial activity against Methicillin susceptible Staphylococcus aureus 237/7 by twofold dilution technique; assay type: functional
Staphylococcus aureus [35] = assay: microbe, parasite or virus in culture; settings: ATCC 6538, 18 h, read-out: DIZ
Description: Antimicrobial activity against Staphylococcus aureus ATCC 6538 at 5 ug after 18 hrs by disk diffusion method

Staphylococcus aureus [36] = assay: Antimicrobial activity against methicillin-resistant Staphylococcus aureus 218/7 by twofold dilution technique; assay type: functional
Staphylococcus aureus [37] = assay: Antimicrobial activity against Staphylococcus aureus ATCC 29213 after 18 hrs by twofold dilution technique; assay type: functional; settings: ATCC 29213, 18 h
Staphylococcus aureus [38] = assay: Antimicrobial activity against Methicillin susceptible Staphylococcus aureus 213/7 by twofold dilution technique; assay type: functional
Staphylococcus aureus [39] = assay: Antimicrobial activity against methicillin-resistant Staphylococcus aureus 144/6 by twofold dilution technique; assay type: functional
Staphylococcus aureus [40] = assay: microbe, parasite or virus in culture; settings: ATCC 29213, 18 h, read-out: DIZ
Description: Antimicrobial activity against Staphylococcus aureus ATCC 29213 at 5 ug after 18 hrs by disk diffusion method

O=C(O)c1cn(C2CC2)c2cc(N3CCNCC3)c(F)cc2c1=O [CIPROFLOXACIN]
zone of inhibition at 5 µg/disc (Staphylococcus aureus [1]): 26 mm | zone of inhibition at 5 µg/disc (Micrococcus luteus [2]): 24 mm | MIC (Staphylococcus aureus [3]): 0.5 µg/mL (≈ 1.51 µM) | MIC (Staphylococcus aureus [4]): > 8 µg/mL | MIC (Staphylococcus aureus [5]): < 0.125 µg/mL | MIC (Staphylococcus aureus [6]): > 8 µg/mL | MIC (Staphylococcus aureus [7]): 0.5 µg/mL (≈ 1.51 µM) | MIC (Staphylococcus aureus [8]): > 8 µg/mL | MIC (Staphylococcus aureus [9]): 0.5 µg/mL (≈ 1.51 µM) | MIC (Staphylococcus aureus [10]): > 8 µg/mL | MIC (Staphylococcus aureus [11]): > 8 µg/mL | MIC (Micrococcus luteus [12]): 0.5 µg/mL (≈ 1.51 µM) | MIC (Staphylococcus aureus [13]): 0.5 µg/mL (≈ 1.51 µM) | zone of inhibition at 5 µg/disc (Micrococcus luteus [14]): 22 mm | MIC (Staphylococcus aureus [15]): 0.5 µg/mL (≈ 1.51 µM) | MIC (Staphylococcus aureus [16]): > 8 µg/mL | MIC (Micrococcus luteus [17]): 0.5 µg/mL (≈ 1.51 µM) | MIC [18]: 4 µg/mL (≈ 12.1 µM) | zone of inhibition at 5 µg/disc (Bacillus cereus [19]): 20 mm | MIC (Bacillus cereus [20]): 1 µg/mL (≈ 3.02 µM) | MIC (Staphylococcus aureus [21]): 1 µg/mL (≈ 3.02 µM) | MIC (Staphylococcus aureus [22]): > 8 µg/mL | MIC (Staphylococcus aureus [23]): 0.5 µg/mL (≈ 1.51 µM) | zone of inhibition at 5 µg/disc [24]: 30 mm | MIC (Staphylococcus aureus [25]): 2 µg/mL (≈ 6.04 µM) | diameter of the inhibition zone (DIZ) (Enterococcus hirae [26]): inactive | MIC (Staphylococcus aureus [27]): 0.5 µg/mL (≈ 1.51 µM) | zone of inhibition at 5 µg/disc (Staphylococcus aureus [28]): 26 mm | MIC (Staphylococcus aureus [29]): 0.5 µg/mL (≈ 1.51 µM) | MIC (Enterococcus hirae [30]): 0.5 µg/mL (≈ 1.51 µM) | MIC (Staphylococcus aureus [31]): 0.5 µg/mL (≈ 1.51 µM) | MIC (Bacillus subtilis [32]): 2 µg/mL (≈ 6.04 µM) | zone of inhibition at 5 µg/disc (Bacillus subtilis [33]): 40 mm | MIC (Staphylococcus aureus [34]): 4 µg/mL (≈ 12.1 µM) | zone of inhibition at 5 µg/disc (Staphylococcus aureus [35]): 28 mm | MIC (Staphylococcus aureus [36]): 4 µg/mL (≈ 12.1 µM) | MIC (Staphylococcus aureus [37]): 0.5 µg/mL (≈ 1.51 µM) | MIC (Staphylococcus aureus [38]): 0.5 µg/mL (≈ 1.51 µM) | MIC (Staphylococcus aureus [39]): > 8 µg/mL | zone of inhibition at 5 µg/disc (Staphylococcus aureus [40]): 22 mm

Reference: ChEMBL document CHEMBL1155271, “Synthesis, crystal structures and antibacterial activity studies of aza-derivatives of phytoalexin from cotton plant--gossypol” (2009)
